Measured values from article PMC5602572, “New carboxamide derivatives bearing benzenesulphonamide as a selective COX-II inhibitor: Design, synthesis and structure-activity relationship” (PLoS ONE, 2017).
Read-outs that look alike come from different tables or passages of the source.

Experiments:
[1] = Determination of LD50 in mice; conditions: mouse, in vivo, ip; male mice, intraperitoneal, observation 72 h
Protocol: Male mice were divided into various groups and test compounds were administered in various doses intraperitoneally. […] All behavioral changes and deaths during the observation periods were recorded. The percentage of death at each dose level was then calculated, converted to probits and the LD50 (μM/kg) values were calculated. To observe the health status of the mice, they were monitored 4 times a day. […] For the purpose of ameliorating the suffering of the dying mice, CO2 euthanasia was applied. All the dead mice were disposed in bio-safety containers in accordance with local standard protocols. The mortality rate in each group was calculated according to the formula: Mortality rate(%)=(the number of dead mice/the number of mice in the group)×100.

[2] = tested on: carrageenan induced rat paw edema; assay: carrageenan-induced rat paw edema bioassay; format: in vivo; conditions: % inhibition of carrageenan induced rat paw edema, intraperitoneal; for Anti-inflammatory activity, 0.5 h (%): 0.5 h after treatment; for Anti-inflammatory activity, 1 h (%): 1 h after treatment; for Anti-inflammatory activity, 2 h (%): 2 h after treatment; for Anti-inflammatory activity, 3 h (%): 3 h after treatment
Protocol: Male albino rats weighing 300 g where purchased from the Department of Zoology and Environmental Biology, University of Nigeria, Nsukka and kept at room temperature in a light controlled animal house. They were fasted with free access to water at least 12 h prior to the experiments. […] The positive control received celecoxib while the negative control received only the vehicle. Edema was produced by injecting 0.2 mL of a solution of 1% carrageenan in the hind paw. The rats were injected intraperitoneally with 1 mL suspension in 0.5% methylcellulose of the tested compounds and reference drug. Paw volume was measured by water displacement with a plethysmometer (UGO BASILE) before, 30 min, 1 h, 2 h and 3 h after treatment. The percentage was calculated by the following equation [25].
Anti-inflammatory activity (%) = (1-D/C)[…], where D represents the difference in paw volume before and after drug administration to the rats and C represents the difference of volume in the control groups. The approval for the use of animal was obtained from the University of Nigeria committee on experimental animal use. No sign of death was observed during the experiment.

COX-1 = target: T1, COX-1 (Ovis aries, UniProt P05979); assay: In vitro cyclooxygenase inhibitory assay (Cayman colorimetric COX (ovine) inhibitor screening kit), COX-1; format: biochemical; conditions: read-out: COX-1 (%) inhibition
T1 construct: purchased Cayman chemicals, USA
T1 sequence (P05979 25-600): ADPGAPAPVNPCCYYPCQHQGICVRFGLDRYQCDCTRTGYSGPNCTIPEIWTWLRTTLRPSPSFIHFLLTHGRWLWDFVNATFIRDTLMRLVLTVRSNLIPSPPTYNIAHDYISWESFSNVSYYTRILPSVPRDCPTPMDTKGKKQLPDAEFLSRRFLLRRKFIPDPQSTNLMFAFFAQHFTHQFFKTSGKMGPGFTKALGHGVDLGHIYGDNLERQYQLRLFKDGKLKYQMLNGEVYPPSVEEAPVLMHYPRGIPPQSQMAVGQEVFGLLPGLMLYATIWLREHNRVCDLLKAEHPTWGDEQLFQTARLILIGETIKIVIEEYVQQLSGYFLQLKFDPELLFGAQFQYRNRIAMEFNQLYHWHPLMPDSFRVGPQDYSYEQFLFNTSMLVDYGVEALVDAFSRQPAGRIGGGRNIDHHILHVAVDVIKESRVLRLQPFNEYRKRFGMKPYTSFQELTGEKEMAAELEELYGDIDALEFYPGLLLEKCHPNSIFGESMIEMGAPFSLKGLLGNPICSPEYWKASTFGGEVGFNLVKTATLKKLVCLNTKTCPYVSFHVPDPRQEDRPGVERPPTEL
Protocol: (§1) The calculations were performed as per the kit guidelines.

COX-2 = target: T2, COX-2 (Ovis aries, UniProt P79208); assay: In vitro cyclooxygenase inhibitory assay (Cayman colorimetric COX (ovine) inhibitor screening kit), COX-2; format: biochemical; conditions: for inhibition at 2 µM: read-out: COX-2 (%) inhibition; for S I (selectivity COX-2/COX-1): ratio of % inhibition COX-2/COX-1 at 2.0 μM
T2 construct: purchased Cayman chemicals, USA
T2 sequence (P79208 17-603): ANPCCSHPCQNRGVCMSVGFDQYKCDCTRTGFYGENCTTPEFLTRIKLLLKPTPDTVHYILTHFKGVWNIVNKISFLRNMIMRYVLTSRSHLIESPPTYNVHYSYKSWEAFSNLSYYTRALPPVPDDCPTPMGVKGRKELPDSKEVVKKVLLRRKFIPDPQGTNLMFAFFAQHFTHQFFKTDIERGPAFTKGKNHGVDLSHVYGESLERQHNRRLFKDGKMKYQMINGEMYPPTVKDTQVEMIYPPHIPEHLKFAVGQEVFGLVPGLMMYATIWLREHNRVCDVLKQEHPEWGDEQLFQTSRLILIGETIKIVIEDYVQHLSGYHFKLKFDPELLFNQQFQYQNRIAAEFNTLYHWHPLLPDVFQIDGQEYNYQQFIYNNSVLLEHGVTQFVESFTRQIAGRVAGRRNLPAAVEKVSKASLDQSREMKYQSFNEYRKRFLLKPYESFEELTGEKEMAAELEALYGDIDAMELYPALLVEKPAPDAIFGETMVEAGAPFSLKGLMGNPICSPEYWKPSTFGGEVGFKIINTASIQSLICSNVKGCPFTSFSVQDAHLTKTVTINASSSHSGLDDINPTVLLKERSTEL
Protocol: as §1

Row | SMILES | LD50 at 72 h [1] [µmol/kg] | Anti-inflammatory activity, 0.5 h (%) [2] [%] | Anti-inflammatory activity, 1 h (%) [2] [%] | Anti-inflammatory activity, 2 h (%) [2] [%] | Anti-inflammatory activity, 3 h (%) [2] [%] | inhibition at 2 µM (COX-1; concentration of 2.0 μM) [%] | inhibition at 2 µM (COX-2; concentration of 2.0 μM) [%] | S I (selectivity COX-2/COX-1) (COX-2) | inhibition at 2 µM (COX-1) [%] | inhibition at 2 µM (COX-2) [%]
1 | Cc1ccc(-c2cc(C(F)(F)F)nn2-c2ccc(S(N)(=O)=O)cc2)cc1 [Celecoxib, celecoxib, reference compound] | 9.8 | 56.92 | 63.53 | 64.84 | 82.60 | – | – | – | – | –
2 | Cc1ccnc(NC(=O)CN(C(=O)c2ccccc2)S(=O)(=O)c2ccc([N+](=O)[O-])cc2)c1 [Compound 7a, N-(4-methylpyridin-2-yl)-2-[N-(4-nitrobenzenesulfonyl)-1-phenylformamido]acetamide] | 12.9 | 24.62 | 18.82 | 14.24 | 11.85 | 14 | 49 | 3.5 | – | –
3 | Cc1ccnc(NC(=O)[C@H](Cc2ccccc2)N(C(=O)c2ccccc2)S(=O)(=O)c2ccc([N+](=O)[O-])cc2)c1 [Compound 7b, (2S)-N-(4-methylpyridin-2-yl)-2-[N-(4-nitrobenzenesulfonyl)-1-phenylformamido]-3-phenyl propanamide] | 14.2 | 32.31 | 17.06 | 17.03 | 12.96 | 8 | 52 | 6.5 | – | –
4 | Cc1ccnc(NC(=O)[C@H](Cc2cc3ccccc3[nH]2)N(C(=O)c2ccccc2)S(=O)(=O)c2ccc([N+](=O)[O-])cc2)c1 [Compound 7c, (2S)-3-(1H-indol-2-yl)-N-(4-methylpyridin-2-yl)-2-[N-(4-nitrobenzenesulfonyl)-1-phenylformamido]propanamide] | 8.3 | 49.23 | 62.35 | 75.75 | 88.89 | – | – | – | 2 | 70
5 | Cc1ccnc(NC(=O)[C@H](CC(C)C)N(C(=O)c2ccccc2)S(=O)(=O)c2ccc([N+](=O)[O-])cc2)c1 [Compound 7d, (2S)-4-Methyl-N-(4-methylpyridin-2-yl)-2-[N-(4-nitrobenzenesulfonyl)-1-phenylformamido]pentanamide] | 12.6 | 52.31 | 17.65 | 10.54 | 10.15 | 10 | 20 | 2.00 | – | –
6 | CCC(C)[C@@H](C(=O)Nc1cc(C)ccn1)N(C(=O)c1ccccc1)S(=O)(=O)c1ccc([N+](=O)[O-])cc1 (stereo partly drawn) [Compound 7e, (2S)-3-Methyl-N-(4-methylpyridin-2-yl)-2-[N-(4-nitrobenzenesulfonyl)-1-phenylformamido]pentanamide] | 13.1 | 26.15 | 25.88 | 19.38 | 16.05 | 4 | 17 | 4.25 | – | –
7 | Cc1ccnc(NC(=O)[C@H](C(C)C)N(C(=O)c2ccccc2)S(=O)(=O)c2ccc([N+](=O)[O-])cc2)c1 [Compound 7f, (2S)-3-Methyl-N-(4-methylpyridin-2-yl)-2-[N-(4-nitrobenzenesulfonyl)-1-phenylformamido]butanamide] | 15.8 | 24.62 | 17.65 | 14.84 | 1.85 | 15 | 54 | 3.6 | – | –
8 | Cc1ccnc(NC(=O)[C@@H]2CC(O)CN2S(=O)(=O)c2ccc([N+](=O)[O-])cc2)c1 (stereo partly drawn) [Compound 7g, (2S)-4-Hydroxy-N-(4-methylpyridin-2-yl)-1-(4-nitrobenzenesulfonyl)pyrrolidine-2-carboxamide] | 9.9 | 46.92 | 53.53 | 58.84 | – | – | – | – | 18 | 20
9 | Cc1ccnc(NC(=O)[C@@H]2CCCN2S(=O)(=O)c2ccc([N+](=O)[O-])cc2)c1 [Compound 7h, (2S)-N-(4-methylpyridin-2-yl)-1-(4-nitrobenzenesulfonyl)pyrrolidine-2-carboxamide] | 10.7 | 27.69 | 17.06 | 16.59 | 16.05 | – | – | – | 30 | 13
10 | Cc1ccc(S(=O)(=O)N(CC(=O)Nc2cc(C)ccn2)C(=O)c2ccccc2)cc1 [Compound 7i, 2-[N-(4-methylbenzenesulfonyl)-1-phenylformamido]-N-(4-methylpyridin-2-yl)acetamide] | 18.2 | 24.62 | 23.53 | 16.78 | 12.47 | 3 | 18 | 6.00 | – | –
